Data reported in PMC4805781 (International Journal for Parasitology: Drugs and Drug …, 2016).

Columns and labels:
[1] = system: P. falciparum HB3 infected cultures; assay: High content image-based assay of merozoite egress and invasion; format: cell-based, Plasmodium falciparum; details: HB3, treated at 42 hpi, 10 μM, 24 h
Microsomal stability = format: in vitro ADME; details: mouse, liver microsomes
[2] = system: Synchronized P. falciparum Dd2 cultures; assay: Flow cytometric profiling of inhibition, YOYO-1 staining; format: cell-based, Plasmodium falciparum; details: Dd2, treated at 6 hpi ring stage, 5×EC50, sampled at 12 h intervals
[3] = Double-sink parallel artificial membrane permeability assay; format: in vitro ADME

CC(C)C[C@H](NC(=O)[C@H]1O[C@@H]1C(=O)O)C(=O)NCCCCN=C(N)N [E-64]
Effect on merozoite egress and invasion [1]: blocked egress

C[C@]12CC[C@H]3[C@@H](CCC4=CC(=O)CC[C@@]43C)[C@@H]1CC[C@@H]2O [Testosterone]
remaining at 1 h (Microsomal stability): 26.1%

C[C@@H]1CC[C@H]2[C@@H](C)C(=O)O[C@@H]3O[C@@]4(C)CC[C@@H]1[C@]32OO4 [artemisinin]
Effect on merozoite egress and invasion [1]: did not block merozoite egress or invasion
Effect on parasite maturation by flow cytometry (DNA content) [2]: maturation is blocked

COCCc1ccc(OCC(O)CNC(C)C)cc1 (stereo not shown) [metoprolol]
Permeability pH 5.0 (−logPe) ([3]; pH 5.0): > 5.4 −logPe
Permeability pH 6.2 (−logPe) ([3]; pH 6.2): 4.4 −logPe
Permeability pH 7.4 (−logPe) ([3]; pH 7.4): 3.6 −logPe
